Reference: patent publication US20170049100A1 (priority 2014, published 2017)
≈ marks a conversion by molar mass, not a printed value. Like-named read-outs stand apart in the source and are kept apart here.

Assays:
Phytophthora infestans [1] = assay: microbe, parasite or virus in culture; format: cell-based; conditions: for EC50: Phytophthora infestans, 120 h
[2] = cited from earlier work
Phytophthora infestans [3] = format: in vivo; conditions: preventive; 3 and 6 I/ha; after incubating for 5 days
Phytophthora infestans [4] = format: in vivo; conditions: applied at the same time as Phytophthora infestans; 5 or 7 days; 0.5-1-3-6 L/ha

Structure (SMILES)	Effectiveness of 2-ethyl-hexanol (% of control) (Phytophthora infestans [1]; 0.000512 μg 2-ethyl-hexanol/mL)	Effectiveness of 2-ethyl-hexanol (% of control) (Phytophthora infestans [1]; 0.00256 μg 2-ethyl-hexanol/mL)	Effectiveness of 2-ethyl-hexanol (% of control) (Phytophthora infestans [1]; 0.0128 μg 2-ethyl-hexanol/mL)	Effectiveness of 2-ethyl-hexanol (% of control) (Phytophthora infestans [1]; 0.064 μg 2-ethyl-hexanol/mL)	Effectiveness of 2-ethyl-hexanol (% of control) (Phytophthora infestans [1]; 0.32 μg 2-ethyl-hexanol/mL)	Effectiveness of 2-ethyl-hexanol (% of control) (Phytophthora infestans [1]; 1.6 μg 2-ethyl-hexanol/mL)	Effectiveness of 2-ethyl-hexanol (% of control) (Phytophthora infestans [1]; 8 μg 2-ethyl-hexanol/mL)	EC50 (Phytophthora infestans [1]) [ng/mL]	biodegradable ([2]; in 5 days) [%]	Effectiveness of octanol (% of control) (Phytophthora infestans [1]; 0.000512 μg octanol/mL)	Effectiveness of octanol (% of control) (Phytophthora infestans [1]; 0.00256 μg octanol/mL)	Effectiveness of octanol (% of control) (Phytophthora infestans [1]; 0.0128 μg octanol/mL)	Effectiveness of octanol (% of control) (Phytophthora infestans [1]; 0.064 μg octanol/mL)	Effectiveness of octanol (% of control) (Phytophthora infestans [1]; 0.32 μg octanol/mL)	Effectiveness of octanol (% of control) (Phytophthora infestans [1]; 1.6 μg octanol/mL)	Effectiveness of octanol (% of control) (Phytophthora infestans [1]; 8 μg octanol/mL)	intensity of the infection of the potato leaves caused by Phytophthora infestans (Phytophthora infestans [3])	development of the pathogen on the surface of potato leaves (Phytophthora infestans [4])	biodegradable ([2]; in 30 days)
CCCCC(CC)CO (centres unmarked) [2-ethyl-hexanol]	16.1 % of control	42.3 % of control	60.1 % of control	71.7 % of control	79.8 % of control	82.2 % of control	84.6 % of control	6.8 (≈ 0.0522 µM)	100	–	–	–	–	–	–	–	–	–	–
CCCCCCCCO [octanol, octan-1-ol]	–	–	–	–	–	–	–	2.7 (≈ 0.0207 µM)	–	23.6 % of control	49.4 % of control	72.2 % of control	84.8 % of control	92.5 % of control	93.3 % of control	94.0 % of control	greatly reduces	completely inhibits	more than 70%
